From patent US20260285858A1, “GLP-1 RECEPTOR TARGETING COMPOUNDS AND USES THEREOF” (FORTVITA BIOLOGICS INC., priority 2023, published 2026)

Experiments:
human GLP-1R = molecular target: T1, human GLP-1R (Homo sapiens, UniProt P43220); assay: cAMP accumulation assay (Hithunter cAMP Assay) in CHO-K1 cells stably expressing human GLP-1R; assay type: cell-based; conditions: CHO-K1 cells expressing human GLP-1R; in the presence of BSA (1%); 30-minute incubation; relative EC50
T1 construct: expressed in transfected cells; host or cells: CHO-K1
Protocol: CHO-K1 cell line stably expressing human GLP-1R was used to detect the cAMP levels using Hithunter cAMP Assay for small molecules platform according manufacturer's instructions (DiscoverX, Cat #90-0075SM2). […] After a 30-minute incubation at 37° C., the cAMP antibody reagent, working solution (mixing 19-parts of lysis buffer, 5-parts of substrate reagent 1, 1-part of substrate reagent 2, and 25-parts of solution D (enzyme donor-labeled cAMP)), and solution A (enzyme […]) were added and incubated at room temperature in the dark. The resulting competitive assays were measured using Spectramax i3x Multi-Mode Detection system (Molecular Devices, USA). A relative EC50 was derived by nonlinear regression analysis by fitting to a 4-parameter logistic model in GraphPad Prism 9 software.

[1] = Pharmacokinetic testing in crab-eating macaques (cynomolgus monkey), IV and PO; assay type: in vivo; conditions: for pharmacokinetics compared to Orforglipron: comparison in words; for AUC(0-t) at 24 h / C0 / clearance / half-life / Cmax / bioavailability: cynomolgus monkey, plasma; for bioavailability: 2 mg/kg vs IV 0.5 mg/kg
Protocol: Crab-eating macaques were administered the compound of the present invention via intravenous injection and oral gavage, respectively. Plasma samples were collected at various time points. The drug concentration of the test compound in the plasma tissue of the crab-eating macaques was detected using an LC-MS/MS analytical method, and a pharmacokinetic analysis was conducted.
Solvent for intravenous injection dosing formulation: […] (DMSO)+5% polyethylene glycol (PEG)-15 hydroxystearate+90% o physiological saline.
Preparation steps for the intravenous injection dosing solution: Accurately weigh the test compound and add it to the aforementioned solvent for intravenous injection dosing to prepare a solution with a final concentration of 0.25 mg/mL.
Solvent for oral dosing formulation: 5% dimethyl sulfoxide (DMSO)+5% polyethylene glycol (PEG)-15 hydroxystearate+90% physiological saline.
Preparation steps for the oral dosing solution: Accurately weigh the test compound and add it to the aforementioned solvent for oral dosing to prepare a solution or suspension with a final concentration of 0.4 mg/mL.
Intravenous injection(IV): Administered via […].
Oral (PO): Select an appropriately sized gavage needle and syringe, insert the gavage needle into the esophagus from the base of the tongue, until it is close to the cardia of the stomach, then inject the drug formulation and remove the gavage needle. When using disposable plastic gavage needles, use one per group.
Blood is collected via a cephalic vein or other suitable vein, with approximately 1 mL per sample, anticoagulated with K2-EDTA, and placed on ice after collection. After collection, blood samples are kept on ice and centrifuged to separate the plasma within 1 hour (centrifugation conditions: 2200 g, 10 minutes, 2-8° C.). Plasma samples are stored at −80° C. before analysis and the remaining plasma samples after analysis are continued to be stored at −80° C. • 4. Sample Detection Plasma concentration detection: The developed LC-MS/MS method is used to detect the compound in the plasma in this experiment. • 5. Data Analysis A non-compartmental model is used to analyze the blood concentration-time data using Phoenix® WinNonlin® (Version 7.0, Pharsight, Mountain View, CA).

T1 sequence (P43220 24-463): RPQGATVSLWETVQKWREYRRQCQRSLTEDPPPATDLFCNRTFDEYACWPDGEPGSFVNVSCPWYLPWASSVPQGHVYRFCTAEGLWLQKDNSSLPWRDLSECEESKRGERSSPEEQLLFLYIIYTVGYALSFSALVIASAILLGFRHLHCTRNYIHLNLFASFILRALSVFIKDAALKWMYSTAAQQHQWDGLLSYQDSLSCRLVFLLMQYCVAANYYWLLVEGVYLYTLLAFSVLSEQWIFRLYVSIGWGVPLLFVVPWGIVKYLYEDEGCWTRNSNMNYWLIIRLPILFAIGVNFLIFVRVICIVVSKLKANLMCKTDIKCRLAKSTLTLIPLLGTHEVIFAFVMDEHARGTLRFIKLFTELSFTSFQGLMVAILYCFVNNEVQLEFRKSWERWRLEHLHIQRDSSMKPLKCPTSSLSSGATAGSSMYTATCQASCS

| Compound | EC50 (human GLP-1R) [nM] | AUC(0-t) at 24 h ([1]; IV, 0.5 mg/kg) [ng·h/mL] | C0 ([1]; IV, 0.5 mg/kg) [ng/mL] | clearance ([1]; IV, 0.5 mg/kg) [mL/min/kg] | half-life ([1]; IV, 0.5 mg/kg) [h] | AUC(0-t) at 24 h ([1]; PO, 2 mg/kg) [ng·h/mL] | Cmax ([1]; PO, 2 mg/kg) [ng/mL] | half-life ([1]; PO, 2 mg/kg) [h] | bioavailability ([1]; PO) [%] | pharmacokinetics compared to Orforglipron [1] |
| --- | --- | --- | --- | --- | --- | --- | --- | --- | --- | --- |
| Cc1cc(-n2nc3c(c2-n2ccn(-c4ccc5c(cnn5C)c4F)c2=O)[C@H](C)N(C(=O)c2cc4cc(C5CCOCC5)ccc4n2[C@@]2(c4nnn[nH]4)[C@@H]4CN([C@H]5CC[C@@H](O)CC5)C[C@@H]42)CC3)cc(C)c1F (single isomer, unassigned) [Compound C-18] | 0.6 | – | – | – | – | – | – | – | – | – |
| Cc1cc(-n2nc3c(c2-n2ccn(-c4ccc5c(cnn5C)c4F)c2=O)[C@H](C)N(C(=O)c2cc4cc([C@H]5CCOC(C)(C)C5)ccc4n2[C@@]2(c4noc(=O)[nH]4)[C@@H]4CN(c5ccccn5)C[C@@H]42)CC3)cc(C)c1F [Compound C-22, 3-[(1R,5S,6S)-6-{5-[(4S)-2,2-dimethyloxan-4-yl]-2-[(4S)-3-[3-(4-fluoro-1-methyl-1H-indazol-5-yl)-2-oxo-2,3-dihydro-1H-imidazol-1-yl]-2-(4-fluoro-3,5-dimethylphenyl)-4-methyl-2H,4H,5H,6H,7H-pyrazolo[4,3-c]pyridine-5-carbonyl]-1H-indol-1-yl}-3-(pyridin-2-yl)-3-azabicyclo[3.1.0]hexan-6-yl]-4,5-dihydro-1,2,4-oxadiazol-5-one] | – | 7560 | 3810 | 0.9 | 10.3 | 3590 | 236 | 13.6 | 11.9 | longer half-life, higher exposure, lower clearance rate, and greater bioavailability |

Continued, in another order:

| EC50 (human GLP-1R) [nM] | AUC(0-t) at 24 h ([1]; IV, 0.5 mg/kg) [ng·h/mL] | C0 ([1]; IV, 0.5 mg/kg) [ng/mL] | clearance ([1]; IV, 0.5 mg/kg) [mL/min/kg] | half-life ([1]; IV, 0.5 mg/kg) [h] | AUC(0-t) at 24 h ([1]; PO, 2 mg/kg) [ng·h/mL] | Cmax ([1]; PO, 2 mg/kg) [ng/mL] | half-life ([1]; PO, 2 mg/kg) [h] | bioavailability ([1]; PO) [%] | Compound | pharmacokinetics compared to Orforglipron [1] |
| --- | --- | --- | --- | --- | --- | --- | --- | --- | --- | --- |
| 0.2 | – | – | – | – | – | – | – | – | Cc1cc(-n2nc3c(c2-n2ccn(-c4ccc5c(cnn5C)c4F)c2=O)[C@H](C)N(C(=O)c2cc4cc(C5CCOCC5)ccc4n2[C@@]2(c4nnn[nH]4)[C@@H]4CN([C@H]5CC[C@H](O)CC5)C[C@@H]42)CC3)cc(C)c1F (single isomer, unassigned) [Compound C-17] | – |
| – | 6290 | 6730 | 1.3 | 6.3 | 6160 | 514 | 5.9 | 24.5 | Cc1cc(-n2nc3c(c2-n2ccn(-c4ccc5c(cnn5C)c4F)c2=O)[C@H](C)N(C(=O)c2cc4cc([C@H]5CCOC(C)(C)C5)ccc4n2[C@@]2(c4noc(=O)[nH]4)[C@@H]4CN(c5ncccn5)C[C@@H]42)CC3)cc(C)c1F [Compound C-12, 3-[(1R,5S,6S)-6-{5-[(4S)-2,2-dimethyloxan-4-yl]-2-[(4S)-3-[3-(4-fluoro-1-methyl-1H-indazol-5-yl)-2-oxo-2,3-dihydro-1H-imidazol-1-yl]-2-(4-fluoro-3,5-dimethylphenyl)-4-methyl-2H,4H,5H,6H,7H-pyrazolo[4,3-c]pyridine-5-carbonyl]-1H-indol-1-yl}-3-(pyrimidin-2-yl)-3-azabicyclo[3.1.0]hexan-6-yl]-4,5-dihydro-1,2,4-oxadiazol-5-one] | longer half-life, higher exposure, lower clearance rate, and greater bioavailability |
| – | 1780 | 1170 | 4.6 | 3.4 | 453 | 37.5 | 6.2 | 6.3 | Cc1cc(-n2nc3c(c2-n2ccn(-c4ccc5c(cnn5C)c4F)c2=O)[C@H](C)N(C(=O)c2cc4cc([C@H]5CCOC(C)(C)C5)ccc4n2[C@@]2(c4noc(=O)[nH]4)C[C@@H]2C)CC3)cc(C)c1F [Orforglipron, reference compound] | – |
